Tests used:
Format in all cases: cell-based
human TLR7 = target: T1, human TLR7 (Homo sapiens, UniProt Q9NYK1); assay: TLR7 inhibition reporter assay (HEK-Blue cells, SEAP reporter, gardiquimod stimulation); settings: HEK-Blue cells overexpressing human TLR7, SEAP reporter, gardiquimod 7.5 μM
T1 construct: host or cells: HEK-Blue cells
T1 sequence (Q9NYK1 27-1049): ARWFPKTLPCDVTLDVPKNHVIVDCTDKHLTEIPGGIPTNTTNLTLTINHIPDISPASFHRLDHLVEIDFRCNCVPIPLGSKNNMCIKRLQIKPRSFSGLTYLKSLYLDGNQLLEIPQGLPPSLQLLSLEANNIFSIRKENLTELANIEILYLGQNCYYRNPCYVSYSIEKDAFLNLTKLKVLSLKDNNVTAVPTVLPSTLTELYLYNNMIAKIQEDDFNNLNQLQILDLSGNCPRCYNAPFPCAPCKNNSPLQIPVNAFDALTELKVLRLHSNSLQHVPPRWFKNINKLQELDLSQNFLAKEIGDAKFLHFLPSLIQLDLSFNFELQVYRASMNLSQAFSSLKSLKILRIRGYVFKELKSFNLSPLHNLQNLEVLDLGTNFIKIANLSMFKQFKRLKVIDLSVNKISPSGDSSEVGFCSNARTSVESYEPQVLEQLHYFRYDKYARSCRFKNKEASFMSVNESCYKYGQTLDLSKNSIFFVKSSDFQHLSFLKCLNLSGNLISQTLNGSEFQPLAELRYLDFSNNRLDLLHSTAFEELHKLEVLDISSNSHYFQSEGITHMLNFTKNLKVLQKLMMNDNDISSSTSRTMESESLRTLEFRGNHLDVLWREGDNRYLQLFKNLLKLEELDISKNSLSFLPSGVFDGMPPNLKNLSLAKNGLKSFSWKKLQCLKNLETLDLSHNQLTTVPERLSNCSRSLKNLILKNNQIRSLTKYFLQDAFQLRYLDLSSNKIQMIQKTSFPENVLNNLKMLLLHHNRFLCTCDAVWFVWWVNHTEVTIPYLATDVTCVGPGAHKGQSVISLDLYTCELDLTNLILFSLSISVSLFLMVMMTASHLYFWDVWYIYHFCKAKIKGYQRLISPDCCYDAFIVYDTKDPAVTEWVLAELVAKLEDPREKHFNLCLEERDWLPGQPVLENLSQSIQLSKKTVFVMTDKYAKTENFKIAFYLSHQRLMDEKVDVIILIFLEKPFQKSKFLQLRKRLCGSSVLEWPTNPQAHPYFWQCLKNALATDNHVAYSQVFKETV
Outline: (§1)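 HEK-Blue cells with NF-κB/AP-1-driven SEAP reporter, pre-treated 30 min at room temperature with compound (0.05 nM-50 μM). Stimulants: gardiquimod 7.5 μM (TLR7), R848 15.9 μM (TLR8) or ODN2006 5 nM (TLR9). SEAP measured after 22 h at 37° C.; percent inhibition versus agonist-plus-DMSO and known-inhibitor wells.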

human TLR8 = target: T2, human TLR8 (Homo sapiens, UniProt Q9NR97); assay: TLR8 inhibition reporter assay (HEK-Blue cells, SEAP reporter, R848 stimulation); settings: HEK-Blue cells overexpressing human TLR8, SEAP reporter, R848 15.9 μM
T2 construct: host or cells: HEK-Blue cells
T2 sequence (Q9NR97 27-1041): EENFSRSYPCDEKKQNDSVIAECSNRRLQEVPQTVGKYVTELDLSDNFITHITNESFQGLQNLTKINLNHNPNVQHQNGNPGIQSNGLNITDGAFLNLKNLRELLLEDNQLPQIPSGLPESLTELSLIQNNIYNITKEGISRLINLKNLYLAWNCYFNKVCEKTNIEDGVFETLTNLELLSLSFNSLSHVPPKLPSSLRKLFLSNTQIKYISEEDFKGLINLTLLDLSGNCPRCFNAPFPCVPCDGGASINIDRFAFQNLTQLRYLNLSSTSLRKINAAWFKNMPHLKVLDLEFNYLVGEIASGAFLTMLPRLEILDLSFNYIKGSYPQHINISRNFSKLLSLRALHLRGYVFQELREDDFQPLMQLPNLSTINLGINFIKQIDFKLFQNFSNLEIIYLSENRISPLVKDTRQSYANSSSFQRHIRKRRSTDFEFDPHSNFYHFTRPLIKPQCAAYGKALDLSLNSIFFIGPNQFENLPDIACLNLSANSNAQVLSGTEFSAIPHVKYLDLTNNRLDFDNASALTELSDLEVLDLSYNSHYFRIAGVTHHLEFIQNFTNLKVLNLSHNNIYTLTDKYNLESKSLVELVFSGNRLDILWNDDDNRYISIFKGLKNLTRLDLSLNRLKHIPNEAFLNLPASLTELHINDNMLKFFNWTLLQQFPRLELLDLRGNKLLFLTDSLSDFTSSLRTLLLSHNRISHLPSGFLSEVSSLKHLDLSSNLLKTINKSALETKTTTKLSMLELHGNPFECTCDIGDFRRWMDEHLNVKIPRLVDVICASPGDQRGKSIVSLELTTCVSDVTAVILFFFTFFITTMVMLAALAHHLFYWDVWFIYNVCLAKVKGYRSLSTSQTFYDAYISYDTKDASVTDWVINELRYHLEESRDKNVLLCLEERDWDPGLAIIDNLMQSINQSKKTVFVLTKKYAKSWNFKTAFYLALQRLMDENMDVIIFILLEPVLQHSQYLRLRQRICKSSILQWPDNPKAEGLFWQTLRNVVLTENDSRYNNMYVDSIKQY
Outline: as §1

human TLR9 = target: T3, human TLR9 (Homo sapiens, UniProt Q9NR96); assay: TLR9 inhibition reporter assay (HEK-Blue cells, SEAP reporter, ODN2006 stimulation); settings: HEK-Blue cells overexpressing human TLR9, SEAP reporter, ODN2006 5 nM
T3 construct: host or cells: HEK-Blue cells
T3 sequence (Q9NR96 26-1032): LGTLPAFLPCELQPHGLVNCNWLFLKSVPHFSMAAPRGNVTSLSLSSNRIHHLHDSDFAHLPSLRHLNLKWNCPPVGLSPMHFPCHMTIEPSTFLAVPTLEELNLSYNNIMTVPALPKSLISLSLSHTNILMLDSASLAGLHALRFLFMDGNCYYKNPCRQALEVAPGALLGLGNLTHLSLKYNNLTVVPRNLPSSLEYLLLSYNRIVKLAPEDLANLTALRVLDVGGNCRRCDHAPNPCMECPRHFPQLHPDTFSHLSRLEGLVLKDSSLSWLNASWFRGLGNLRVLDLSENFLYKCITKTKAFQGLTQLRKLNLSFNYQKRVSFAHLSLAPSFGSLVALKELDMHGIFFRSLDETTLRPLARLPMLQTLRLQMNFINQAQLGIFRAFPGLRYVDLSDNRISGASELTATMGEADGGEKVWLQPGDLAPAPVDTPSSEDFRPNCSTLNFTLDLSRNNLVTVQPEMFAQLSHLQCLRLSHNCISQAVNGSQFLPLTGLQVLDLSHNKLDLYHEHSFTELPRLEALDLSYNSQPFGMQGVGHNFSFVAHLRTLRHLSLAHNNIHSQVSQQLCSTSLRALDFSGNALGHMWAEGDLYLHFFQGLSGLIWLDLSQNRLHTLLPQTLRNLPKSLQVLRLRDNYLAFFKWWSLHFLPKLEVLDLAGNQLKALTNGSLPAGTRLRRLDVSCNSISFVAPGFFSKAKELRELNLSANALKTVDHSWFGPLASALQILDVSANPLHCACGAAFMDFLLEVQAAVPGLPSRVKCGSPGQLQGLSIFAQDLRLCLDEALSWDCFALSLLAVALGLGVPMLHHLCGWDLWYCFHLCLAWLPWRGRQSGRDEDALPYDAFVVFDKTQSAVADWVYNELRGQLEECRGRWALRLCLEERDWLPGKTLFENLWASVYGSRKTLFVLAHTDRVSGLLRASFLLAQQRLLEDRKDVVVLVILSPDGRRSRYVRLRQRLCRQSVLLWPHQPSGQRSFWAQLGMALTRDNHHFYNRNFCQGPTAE
Outline: as §1

SMILES	IC50 (human TLR7) [nM]	IC50 (human TLR8) [nM]	IC50 (human TLR9) [nM]
CNC(=O)CNC1CCC(c2ccc3[nH]c(-c4cc(C)c5ncnn5c4)c(C(C)C)c3c2)CC1 (single isomer, unassigned) [Example 162, 2-((4-(3-isopropyl-2-(8-methyl-[1,2,4]triazolo[1,5-a]pyridin-6-yl)-1H-indol-5-yl)cyclohexyl)amino)-N-methylacetamide]	0.56	1.2	2110
CNC(=O)CN1CC(c2ccc3[nH]c(-c4cc(OC)c5ncnn5c4)c(C(C)C)c3c2)C1 [Example 263]	2	4	3620
COc1cc(-c2[nH]c3ccc(C4CCC(N(C)CCS(C)(=O)=O)CC4)cc3c2C(C)C)cn2ncnc12 (stereo not drawn) [Example 150, 4-(3-isopropyl-2-(8-methoxy-[1,2,4]triazolo[1,5-a]pyridin-6-yl)-1H-indol-5-yl)-N-methyl-N-(2-(methylsulfonyl)ethyl)cyclohexanamine]	0.35	0.44	1680
Cc1cc(-c2[nH]c3ccc(CCN4CCCC4)cc3c2C(C)C)cn(C)c1=O [Example 405]	35	8.4	13700
COCCN1CCN(C2CCC(c3ccc4[nH]c(-c5cc(OC)c6ncnn6c5)c(C(C)C)c4c3)CC2)CC1 (single isomer, unassigned) [Example 39]	9	5.8	2230
Cc1cc(-c2[nH]c3ccc([C@@H]4C[C@H]4C(=O)N(C)C4CC5CCN4CC5)cc3c2C(C)C)ccn1 (stereo partly drawn) [Example 459]	19	10	174
Cc1cc(-c2[nH]c3ccc(CCN4CCOCC4)cc3c2C(C)C)cc(C)n1 [Example 393, 2-(2,6-dimethylpyridin-4-yl)-5-[2-(morpholin-4-yl)ethyl]-3-(propan-2-yl)-1H-indole]	18	9.3	883
Cc1c(-c2[nH]c3ccc(C4CCC(NC5COC5)CC4)cc3c2C(C)C)cn(C)c(=O)c1C (stereo not drawn) [Example 477]	2	1.8	8210
Cc1c(-c2[nH]c3ccc(C4CCC(NC5COC5)CC4)cc3c2C(C)C)cn2cnnc2c1C (stereo not drawn) [Example 523]	0.48	5.1	2720
Cc1cc(-c2[nH]c3ccc(C4CCC(NC5COC5)CC4)cc3c2C(C)C)cn2ncnc12 (stereo not drawn) [Example 59]	0.14	0.88	3140
Cc1c(-c2[nH]c3ccc(C4CCC(NC5CC5)CC4)cc3c2C(C)C)cn2ncnc2c1C (stereo not drawn) [Example 17]	0.73	0.7	3530
Cc1c(-c2[nH]c3ccc(C4CC(NC(=O)CN(C)C)C4)cc3c2C(C)C)cn(C)c(=O)c1C (stereo not drawn) [Example 490]	2	1	13500
Cc1c(-c2[nH]c3ccc(C4CN(C5COC5)C4)cc3c2C(C)C)cn(C)c(=O)c1C [Example 485]	46	27	48000
Cc1cc(-c2[nH]c3ccc(C4CCCNC4)cc3c2C(C)C)ccn1 (stereo not drawn) [Example 185]	18	1.9	1240
Cc1c(-c2[nH]c3ccc(CC4CN(C(=O)CN(C)C)C4)cc3c2C(C)C)cn2ncnc2c1C [Example 436]	3	11	10800
CNCC(=O)N1CCCC(c2ccc3[nH]c(-c4cn5ncnc5c(C)c4C)c(C(C)C)c3c2)C1 (stereo not drawn) [Example 214]	2	2.9	5880
Cc1c(-c2[nH]c3ccc(C4CN(C)C4)cc3c2C(C)C)cn2cnnc2c1C [Example 533]	8	42	2180
Cc1c(-c2[nH]c3ccc(CC4CN(CC(=O)N(C)C)C4)cc3c2C(C)C)cn2ncnc2c1C [Example 400]	18	5.1	2820
COc1cc(-c2[nH]c3ccc(C4CCC(NC(=O)CN(C)C5CC5)CC4)cc3c2C(C)C)cn2ncnc12 (stereo not drawn) [Example 143]	2	8	27700
Cc1cc(-c2[nH]c3ccc(C4CN5CCC4CC5)cc3c2C(C)C)cc(C)n1 (single isomer, unassigned) [Example 362, 3-(2-(2,6-dimethylpyridin-4-yl)-3-isopropyl-1H-indol-5-yl)quinuclidine]	6	14	432
CCCN1CC(c2ccc3[nH]c(-c4cn(C)c(=O)c(C)c4C)c(C(C)C)c3c2)C1 [Example 488]	22	6	4240
COc1cc(-c2[nH]c3ccc(C4CCC(NC(C)=O)CC4)cc3c2C(C)C)cn2ncnc12 (single isomer, unassigned) [Example 116, N-(4-(3-isopropyl-2-(8-methoxy-[1,2,4]triazolo[1,5-a]pyridin-6-yl)-1H-indol-5-yl)cyclohexyl)acetamide]	9	61	> 50000
